Assay results: ChEMBL document CHEMBL3046299, “Neonicotinoid substituents forming a water bridge at the nicotinic acetylcholine receptor” (J Agric Food Chem, 2009)
pKi: −log10 of the molar value.

How the values were obtained:
[1] = Displacement of [3H]IMI from nicotinic acetylcholine receptor in Drosophila melanogaster brain
[2] = tested on: Aphis gossypii; test: Insecticidal activity against adult Aphis gossypii (cotton aphid) in cucumber cotyledons assessed as mortality at 500 ppm treated for 5 secs before adult infestation measured after 72 hr; assay type: functional; conditions: in Cucumis sativus
[3] = tested on: Drosophila melanogaster; test: Displacement of [3H]IMI from nicotinic acetylcholine receptor in Drosophila melanogaster brain at Ki concentration

Structure (SMILES): CCCN1CCN(Cc2ccc(Cl)nc2)/C1=N/[N+](=O)[O-]
- pKi [1]: 6.05

Structure (SMILES): O=[N+]([O-])/N=C1\NCCN1Cc1ccc(Cl)nc1 [IMIDACLOPRID]
- pKi [1]: 8.52
- mortality at 500 ppm [2]: 100%

Structure (SMILES): O=C(CCN1CCN/C1=N\[N+](=O)[O-])C(F)(F)F
- pKi [1]: ≤ 4.00
- mortality at 500 ppm [2]: 0%
- inhibition [3]: 43%

Structure (SMILES): CC(=O)CCN1CCN/C1=N\[N+](=O)[O-]
- pKi [1]: 5.92
- mortality at 500 ppm [2]: 8%

Structure (SMILES): O=[N+]([O-])/N=C1\N(CCC(O)C(F)(F)F)CCN1Cc1ccc(Cl)nc1 (stereo not given)
- pKi [1]: 5.30

Structure (SMILES): CN/C(=N\[N+](=O)[O-])NCc1cnc(Cl)s1 [CLOTHIANIDINE]
- pKi [1]: 8.40
- mortality at 500 ppm [2]: 100%

Structure (SMILES): O=[N+]([O-])/N=C1\NCCN1CCF
- pKi [1]: ≤ 4.00
- mortality at 500 ppm [2]: 47%
- inhibition [3]: 44%

Structure (SMILES): O=[N+]([O-])/N=C1\NCCN1C[C@@H]1C[C@@H]2O[C@@H]2C1
- pKi [1]: 5.09
- mortality at 500 ppm [2]: 0%

Structure (SMILES): O=[N+]([O-])/N=C1\NCCN1CCCCl
- pKi [1]: 5.44
- mortality at 500 ppm [2]: 55%

Structure (SMILES): CN/C(=N/CC1CCOC1)N[N+](=O)[O-] (stereo not given) [DINOTEFURAN]
- pKi [1]: 7.12
- mortality at 500 ppm [2]: 100%

Structure (SMILES): O=[N+]([O-])/N=C1\NCCN1CCCF
- pKi [1]: 5.77
- mortality at 500 ppm [2]: 55%

Structure (SMILES): C/C(CCN1CCN/C1=N\[N+](=O)[O-])=N\O
- pKi [1]: 4.39
- mortality at 500 ppm [2]: 10%

Structure (SMILES): CCCN1CCN/C1=N\[N+](=O)[O-]
- pKi [1]: 4.89
- mortality at 500 ppm [2]: 31%

Structure (SMILES): O=[N+]([O-])/N=C1\NCCN1CC1CCOC1 (stereo not given)
- pKi [1]: 6.96
- mortality at 500 ppm [2]: 100%

Structure (SMILES): CO/N=C(\C)CCN1CCN/C1=N\[N+](=O)[O-]
- pKi [1]: 4.21
- mortality at 500 ppm [2]: 2%

Structure (SMILES): O=[N+]([O-])/N=C1\N(CCCF)CCN1Cc1ccc(Cl)nc1
- pKi [1]: 6.13

Structure (SMILES): O=[N+]([O-])/N=C1\NCCN1C[C@H]1C[C@@H]2O[C@@H]2C1
- pKi [1]: 4.83
- mortality at 500 ppm [2]: 18%

Structure (SMILES): O=[N+]([O-])/N=C1\NCCN1CCC(O)C(F)(F)F (stereo not given)
- pKi [1]: 4.74

Structure (SMILES): CC(=O)O/C(=C\CN1CCN/C1=N\[N+](=O)[O-])C(F)(F)F
- pKi [1]: 4.79

Structure (SMILES): O=[N+]([O-])/N=C1\NCCN1CC1CC=CC1
- pKi [1]: 4.70
- mortality at 500 ppm [2]: 20%

Structure (SMILES): O=[N+]([O-])/N=C1\NCCN1CCCCF
- pKi [1]: 5.46
- mortality at 500 ppm [2]: 27%

Structure (SMILES): CC(=O)CCN1CCN(Cc2ccc(Cl)nc2)/C1=N/[N+](=O)[O-]
- pKi [1]: 5.21
